According to patent US20250171434A1, “SEC61 INHIBITORS AND USE THEREOF” (KEZAR LIFE SCIENCES, INC., priority 2022, published 2025):

What was measured:
[1] = tested on: PD1-ss+10aa/Gaussia Luciferase; assay: Dox-Induced PD1-ss-Gluc Assay; assay type: cell-based; details: Flp-In 293 T-REx cells, 24 hours with doxycycline; Table 1; read-out: 24 hr Dox Inducible PD1ssGluc 293FRT/TO: Mean IC50
How it was run: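 The cell line was made by transfecting Flp-In 293 T-REx cells with a PD1 signal sequence+10aa–Gaussia luciferase fusion under T-REx control and selecting with hygromycin and blasticidin. Cells were seeded, and next day compound plus doxycycline was added at 37 °C, 5% CO2.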

[2] = tested on: IL-2-FL/Gaussia Luciferase; assay: Dox Inducible IL2-FL-Gluc Assay; assay type: cell-based; details: Table 1; for IC50: Flp-In 293 T-REx cells, 24 hours with doxycycline, read-out: 24 hr Dox Inducible IL2FLGluc 293FRT/TO: Mean IC50; for 24 hr Dox Inducible IL2FLGluc 293FRT/TO: IL2/PD1: ratio of IC50s IL2/PD1
How it was run: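 Stable Flp-In 293 T-REx line, Tet-regulated IL-2 (aa 1-153)–Gaussia luciferase fusion; hygromycin/blasticidin selected. Plated day -1; compound + doxycycline added next day; 37° C, 5% CO2.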

CD47(ss + 10)Gluc = assay: Dox-Induced CD47-ss-Gluc Assay; assay type: cell-based; details: Flp-In 293 T-REx cells, 24 hours with doxycycline; Table 1; read-out: 24 hr Dox Inducible CD47(ss + 10)Gluc 293FRT/TO: Mean IC50
[3] = tested on: IL6R-ss+10aa/Gaussia Luciferase; assay: Dox-induced IL-6R-ss-Gluc Assay; assay type: cell-based; details: Table 1; for IC50: Flp-In 293 T-REx cells, 24 hours with doxycycline, read-out: 24hr Dox Inducible IL6R(ss + 10)Gluc 293FRT/TO: Mean IC50; for 24hr Dox Inducible IL6R(ss + 10)Gluc 293FRT/TO: IL6R/PD1: ratio of IC50s IL6R/PD1
How it was run: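 Flp-In 293 T-REx cells stably carrying a doxycycline-inducible IL6R signal sequence+10 aa fused to Gaussia luciferase. Cells plated the day before; compound dilutions added in DMSO/media containing doxycycline and incubated at 37 °C, 5% CO2.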

[4] = tested on: multiple myeloma cell line NCI-H929; assay: H929 Cell Viability Assay; assay type: cell-based, human; details: Homo sapiens; NCI-H929 cells, 48 hours, Celltiter-Glo; read-out: 48 hr H929 Viability Celltiter-Glo: Mean EC50
How it was run: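 Cells in RPMI 1640/10% FBS; compound dilutions in DMSO/media; 48 h, 37° C, 5% CO2; CellTiter-Glo luciferase readout for viability.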

[5] = tested on: multiple myeloma cell line U266B1; assay: U266 Cell Viability Assay; assay type: cell-based; details: Homo sapiens, U-266; U266B1 cells, 48 hours, Celltiter-Glo; read-out: 48 hr U266 Viability Celltiter-Glo: Mean EC50
How it was run: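 Luminescent ATP read-out (CellTiter-Glo) after 48 h compound exposure at 37° C., 5% CO2; cells maintained in RPMI 1640/10% FBS/2 mM glutamine/pen-strep, compounds diluted in DMSO/media.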

[6] = Liver Microsome Stability Assay, mouse; assay type: in vitro ADME; details: mouse liver microsomes 1.0 mg/mL, 1.0 uM compound, 37° C., 1 mM NADPH
How it was run: (§1)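 Stability was judged from samples quenched at 0 and 30 minutes after incubating 1.0 uM compound with 1.0 mg/mL liver microsomes at 37° C, plus or minus 1 mM NADPH, in 0.1 M potassium phosphate containing 0.4% DMSO.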

[7] = Liver Microsome Stability Assay, rat; assay type: in vitro ADME; details: rat liver microsomes 1.0 mg/mL, 1.0 uM compound, 37° C., 1 mM NADPH
How it was run: as §1

[8] = Liver Microsome Stability Assay, monkey; assay type: in vitro ADME; details: monkey liver microsomes 1.0 mg/mL, 1.0 uM compound, 37° C., 1 mM NADPH
How it was run: as §1

[9] = Liver Microsome Stability Assay, human; assay type: in vitro ADME; details: human liver microsomes 1.0 mg/mL, 1.0 uM compound, 37° C., 1 mM NADPH
How it was run: as §1

SMILES | IC50 [1] [µM] | IC50 [2] [µM] | 24 hr Dox Inducible IL2FLGluc 293FRT/TO: IL2/PD1 [2] | IC50 (CD47(ss + 10)Gluc) [µM] | IC50 [3] [µM] | 24hr Dox Inducible IL6R(ss + 10)Gluc 293FRT/TO: IL6R/PD1 [3] | EC50 [4] [µM] | EC50 [5] [µM] | Liver Microsome Stability (Multiple Species): Mouse - % Remaining after 30 min w/ NADPH (%) [6] [%] | Liver Microsome Stability (Multiple Species): Rat - % Remaining after 30 min w/ NADPH (%) [7] [%] | Liver Microsome Stability (Multiple Species): Monkey - % Remaining after 30 min w/ NADPH (%) [8] [%] | Liver Microsome Stability (Multiple Species): Human - % Remaining after 30 min w/ NADPH (%) [9] [%]
CN[C@H]1CC[C@H](/C=C/c2csc(NC(=O)c3cccn3Cc3ccncc3)n2)CC1 [Compound B12, N-(4-((E)-2-((1r,4r)-4-(methylamino)cyclohexyl)vinyl)thiazol-2-yl)-1-(pyridin-4-ylmethyl)-1H-pyrrole-2-carboxamide] | 17.1 | 7.13 | 0.4 | 15.6 | > 25 | >1.5 | > 25 | > 25 | 57 | 12 | <1 | <1
N#Cc1ccc(/C=C/c2csc(NC(=O)c3cccn3Cc3ccnc(F)c3)n2)nc1 [Compound B13, (E)-N-(4-(2-(5-cyanopyridin-2-yl)vinyl)thiazol-2-yl)-1-((2-fluoropyridin-4-yl)methyl)-1H-pyrrole-2-carboxamide] | 0.05 | > 25 | >500 | > 25 | > 25 | >500 | > 25 | > 25 | 4 | <1 | <1 | <1
Cc1nc(/C=C/c2csc(NC(=O)c3cccn3Cc3ccnc(F)c3)n2)ccc1C#N [Compound B14, (E)-N-(4-(2-(5-cyano-6-methylpyridin-2-yl)vinyl)thiazol-2-yl)-1-((2-fluoropyridin-4-yl)methyl)-1H-pyrrole-2-carboxamide] | 1.1 | > 25 | >23 | > 25 | > 25 | >23 | > 25 | > 25 | 0.2 | <1 | <1 | <1
CC(=O)N[C@H]1CC[C@@H](/C=C/c2csc(NC(=O)c3cccn3Cc3ccncc3)n2)CC1 [Compound B15, N-(4-((E)-2-((1s,4s)-4-acetamidocyclohexyl)vinyl)thiazol-2-yl)-1-(pyridin-4-ylmethyl)-1H-pyrrole-2-carboxamide] | 11.9 | > 25 | >2.1 | > 25 | > 25 | >2 | > 25 | > 25 | 2 | 1 | <1 | <1
N[C@H]1CC[C@@H](/C=C/c2csc(NC(=O)c3cccn3Cc3ccncc3)n2)CC1 [Compound B16, N-(4-((E)-2-((1s,4s)-4-aminocyclohexyl)vinyl)thiazol-2-yl)-1-(pyridin-4-ylmethyl)-1H-pyrrole-2-carboxamide] | 8.11 | 19.5 | 2.4 | 7.07 | 8.77 | 1 | 19.3 | 21.3 | 79 | 47 | 2 | 1
CC(=O)N[C@H]1CC[C@H](/C=C/c2csc(NC(=O)c3cccn3Cc3ccncc3)n2)CC1 [Compound B17] | 5.1 | 8.24 | 1.6 | > 25 | 23.8 | 5 | 5.11 | 8.61 | 4 | 17 | <1 | <1
N[C@H]1CC[C@H](/C=C/c2csc(NC(=O)c3cccn3Cc3ccncc3)n2)CC1 [Compound B18, N-(4-((E)-2-((1r,4r)-4-aminocyclohexyl)vinyl)thiazol-2-yl)-1-(pyridin-4-ylmethyl)-1H-pyrrole-2-carboxamide] | 11.3 | > 25 | >2.2 | > 25 | 9.91 | 1 | > 25 | > 25 | 45 | 6 | <1 | <1
N#Cc1ocnc1/C=C/c1csc(NC(=O)c2cccn2Cc2ccnc(F)c2)n1 [Compound B19, (E)-N-(4-(2-(5-cyanooxazol-4-yl)vinyl)thiazol-2-yl)-1-((2-fluoropyridin-4-yl)methyl)-1H-pyrrole-2-carboxamide] | 0.318 | > 25 | >79 | > 25 | > 25 | >79 | > 25 | > 25 | 22 | 1 | 6 | 7
